Laboratory results taken from paper PMC2754381 (Biochemistry, 2009).

Target: MtOMPDC (wildtype OMPDC from Methanothermobacter thermautotrophicus) (Methanothermobacter thermautotrophicus, UniProt O26232)
Test: OMP decarboxylation followed at […] nm
Assay type: biochemical

MtOMPDC (wildtype OMPDC from Methanothermobacter thermautotrophicus), sequence (O26232 whole entry): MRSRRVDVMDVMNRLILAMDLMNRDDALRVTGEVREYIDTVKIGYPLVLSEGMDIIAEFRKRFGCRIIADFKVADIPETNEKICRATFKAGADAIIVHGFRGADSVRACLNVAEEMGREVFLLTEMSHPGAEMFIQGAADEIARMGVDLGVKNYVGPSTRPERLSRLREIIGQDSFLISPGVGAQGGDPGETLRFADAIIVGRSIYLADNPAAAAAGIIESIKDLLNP

Ki: ~100 µM
SMILES: O=c1ccn([C@@H]2O[C@H](COP(=O)(O)O)[C@@H](O)[C@H]2O)c(=O)[nH]1 [UMP, uridine 5′-monophosphate]
